One data set has as its system E0771-HER2 tumour. Briefly: E0771-HER2 tumour growth inhibition in C57/BL6 mice. The following applies: following AMD infusion after SiTE. In kind it is in vivo, mouse. From the text:
FIG. 20A: 106 E0771-HER2 cells were s.c. injected into the right flank of C57/BL6 mice. […] All mice were euthanized at day 23. FIG. 20B: images of mice from all treatment groups on day 23. FIG. 20C: tumour growth curves for different groups. Tumour tissue was isolated on Day 23 and observed for immune cell infiltration. FIG. 20D: repeat of the tumour growth inhibition experiment. FIG. 20E: mouse body weight change during the tumour inhibition experiment. FIG. 20F: percentages of CD45+, CD45+CD3+, CD45+CD3+CD4+/CD8+ cells in the tumour tissues. FIG. 20G: immunofluorescence images of the tumour tissues in different groups with cell nuclei labeled with DAPI (blue) and T cells labeled with anti-CD3 antibody (green). Scale bar: 100 μm.
Tumour size and mouse weight were monitored.
Minimal changes in mouse weight were observed across the different groups (FIG. 20E), likely because HER2 antigen is not expressed on normal mouse cells, preventing toxicity from on-target, off-tumour activity. At day 23, all mice were euthanized and tumour tissue was collected to determine total lymphocyte and CD3^+ T cell infiltration using flow cytometry and immunofluorescence imaging.
Additionally, to confirm that this impact on the tumour tissue was HER2 specific, SiTE activity was evaluated in a HER2 negative E0771 tumour model (FIGS. 24A-24J).

Data set [1] has as its system Raji-Luc-GFP tumour cells. The following applies: AMD treatment group after SiTE. On the procedure: FIG. 42A: NSG-SGM3 mice were treated with Busulfan at day −50 to remove mouse bone marrow. At day −49, 10^5 human CD34^+ fetal liver cells were i.v. injected to let the mouse develop a human immune system. 10^6 Raji-Luc-GFP tumour cells were i.v. injected at day −14. At days 1, 3, and 5, PBS or SiTE was i.v. injected (in the PBS group, only PBS was injected to tumour-bearing mice). […] FIGS. 42B-42E: mouse body weight, temperature, IL-6 levels, and mouse survival curves, respectively. n=10 mice. The red stars in FIG. 42B indicate that mice were euthanized. FIG. 42F: measurements of IL-1 in mouse blood at different time points. n=10 mice. […] Brain H&E staining (FIG. 42I) and human CD68 immunohistochemistry (FIG. 42J) images of mice at day 35. The data in FIGS. 42B-42F were plotted as mean z s.d. (n=10) from three independent experiments.
It was also evaluated if the SiTE can help control neurotoxicity. In the clinic, neurotoxicity is usually delayed and occurs several […] after CRS onset. Tumour-bearing mice were treated with SiTE at days 1, 3 and 5 (FIG. 42A). […] Rather than use a preventative strategy for treating CRS (FIGS. 40A-40M), here Tocilizumab was used to treat CRS when symptoms presented, so that it can be compared directly with the SiTE strategy. […] Studies have shown that IL-1 is the major cause of neurotoxicity.

The test system of data set [2] is Raji-Luc-GFP tumour cells. Briefly: Cytokine release syndrome in humanized NSG-SGM3 mice with Raji-Luc-GFP tumour. The class given is in vivo, mouse. As to conditions: 10 mg/kg AMD i.v., 24 h post-AMD. The protocol:
An in vivo imaging system (IVIS) was used to monitor tumour burden in vivo. […] FIGS. 41C-41E: Mouse body weight, temperature and survival curves, respectively. n=10 mice. […] The data in FIGS. 41C-41D and FIGS. 41F-41J were plotted as mean±s.d. (n=10) from three independent experiments. […] P value in FIG. 41E was determined using Log-rank (Mantel-Cox) test.
SiTE and Blinatumomab were also compared with regard to treating symptoms of CRS and neurotoxicity. The humanized mouse model was constructed as before, but this time the piggybac transposon system was not used to express CD19 in the mouse livers. This allowed better analysis of the effects of the SiTE on CRS and neurotoxicity (FIG. 41A). Raji-Luc-GFP cells were i.v. injected at day −14. Blinatumomab, SiTE or PBS were i.v. injected to the mice at day one. Mouse tumour burden, body weight, temperature, and plasma cytokine levels were monitored (FIGS. 41B-41J).

Data set [3] in a line: Half-life, distribution and clearance of AMD in mice. In kind it is in vivo. The following applies: mouse; for half-life: blood, intravenous.

Experimental findings from patent US20260216328A1, “DISRUPTABLE LINKER COMPOSITIONS, SWITCHABLE BISPECIFIC T CELL NANOENGAGER (SWITCH-BITE) COMPOSITIONS COMPRISING THE SAME, AND METHODS OF USE THEREOF” (The Trustees of the University of Pennsylvania, priority 2023, published 2026) are described below.

`NC12CC3CC(CC(C3)C1)C2` [AMD, adamantan-1-amine]: the “number of T cells in the tumour tissue” value with E0771-HER2 tumour is reported as “greatly decreased”. Besides, in data set [1], the animal survival result is “prolonged animal survival”. Also, the “increased cytokine levels after AMD” value in data set [2] was “gradually recovered to within normal ranges”. Further, the half-life in data set [3] (AMD dispersed in 5% polyoxyethylene castor oil) is ~24 h; in data set [3] (AMD dispersed in PBS), ~9 h. In addition, in data set [3] (in vivo), the clearance entry was “cleared from the urine”.
